Reference: patent publication US10174036B2, “Substituted pyrazoles as JAK inhibitors” (WUXI FORTUNE PHARMACEUTICAL CO., LTD, priority 2015, dated 2019)

Legend:
Type in all cases: biochemical
JAK1 = molecular target: T1, JAK1 (Homo sapiens, UniProt P23458); assay: Test for in vitro activity of JAK1 kinase (LANCE Ultra ULight-JAK-1 peptide); details: selectivity ratio JAK1 versus JAK2; class symbol
T1 construct: purchased Life technology
Protocol: (§1) Test for In Vitro Activity of Jak1, Jak2, and Jak3 Kinase
(§2) Recombinant human […] of JAK1, JAK2 and JAK3 were purchased from Life technology. LANCE Ultra ULight™-JAK-1 (Tyr1023) peptide and LANCE Eu-W1024 Anti-phosphotyrosine (PT66) were purchased from PerkinElmer. Multimode ELISA, Envison(PerkinElmer) reader was used.
The reaction was carried out at room temperature for 90 min and the reaction system was 10 ul.
(§3) Determination for Reaction
(§4) 10 ul detection reagent was added to reaction plate, wherein the final concentration of LANCE Eu-W1024 Anti-phosphotyrosine (PT66) was 2 nM, the final concentration of EDTA was […], incubated at room temperature for 60 min, with Envison reader.
(§5) The reading was converted to inhibition ratio (%) by the following formula: the inhibition ratio (%)=([…])/(Max−Min)×100%.

JAK3 = molecular target: T2, JAK3 (Homo sapiens, UniProt P52333); assay: Test for in vitro activity of JAK3 kinase (LANCE Ultra ULight-JAK-1 peptide); details: selectivity ratio JAK3 versus JAK2; class symbol
T2 construct: purchased Life technology
T2 sequence (P52333 1-1124): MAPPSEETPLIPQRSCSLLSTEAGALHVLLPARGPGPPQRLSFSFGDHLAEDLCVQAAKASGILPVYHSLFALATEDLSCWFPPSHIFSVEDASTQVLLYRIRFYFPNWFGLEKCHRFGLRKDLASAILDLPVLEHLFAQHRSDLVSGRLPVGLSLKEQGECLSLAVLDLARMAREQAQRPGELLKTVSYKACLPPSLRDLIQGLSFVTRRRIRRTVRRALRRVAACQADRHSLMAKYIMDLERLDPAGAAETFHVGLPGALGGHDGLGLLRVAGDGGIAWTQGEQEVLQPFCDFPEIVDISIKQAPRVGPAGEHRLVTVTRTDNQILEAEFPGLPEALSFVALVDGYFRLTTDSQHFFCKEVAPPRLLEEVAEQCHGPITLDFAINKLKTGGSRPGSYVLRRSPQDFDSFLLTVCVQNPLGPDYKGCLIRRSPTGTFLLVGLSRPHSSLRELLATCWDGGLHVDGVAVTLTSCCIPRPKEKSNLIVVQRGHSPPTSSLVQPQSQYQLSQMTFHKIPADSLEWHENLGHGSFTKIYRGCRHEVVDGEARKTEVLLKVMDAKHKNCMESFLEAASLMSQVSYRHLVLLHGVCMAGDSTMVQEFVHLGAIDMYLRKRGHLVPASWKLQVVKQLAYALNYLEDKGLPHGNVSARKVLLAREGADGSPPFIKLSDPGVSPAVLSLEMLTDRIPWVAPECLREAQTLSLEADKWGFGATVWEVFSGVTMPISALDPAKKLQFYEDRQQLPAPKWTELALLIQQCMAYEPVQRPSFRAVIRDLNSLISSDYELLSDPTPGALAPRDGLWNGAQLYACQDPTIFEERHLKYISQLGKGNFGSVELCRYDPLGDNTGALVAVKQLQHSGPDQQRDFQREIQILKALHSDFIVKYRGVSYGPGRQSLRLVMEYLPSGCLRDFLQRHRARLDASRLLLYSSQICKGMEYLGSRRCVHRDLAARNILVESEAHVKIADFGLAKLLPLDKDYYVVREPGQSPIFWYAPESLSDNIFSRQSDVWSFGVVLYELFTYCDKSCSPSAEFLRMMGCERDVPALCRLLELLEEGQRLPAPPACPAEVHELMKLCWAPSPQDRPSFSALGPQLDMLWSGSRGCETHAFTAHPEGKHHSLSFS
Protocol: as §1, §2
0.05 nM of JAK3 Protein kinase, 50 nM of LANCE Ultra ULight™-JAK-1(Tyr1023) peptide, 4 uM of ATP, 50 mM of HEPES (pH 7.5), 10 mM of MgCl2, 1 mM of EGTA, 2 mM of DTT, 0.01% BRIJ-35. […] The reaction was carried out at room temperature for 90 min and the reaction system was 10 ul.
as §3, §4, §5

JAK2 = molecular target: T3, JAK2 (Homo sapiens, UniProt O60674); assay: Test for in vitro activity of JAK2 kinase (LANCE Ultra ULight-JAK-1 peptide); details: recombinant human JAK2, 12 uM ATP, 60 min; class symbol
T3 construct: purchased Life technology
Protocol: as §1, §2
The reaction was carried out at room temperature for 60 min and the reaction system was 10 ul.
as §3, §4, §5

T1 sequence (P23458 whole entry): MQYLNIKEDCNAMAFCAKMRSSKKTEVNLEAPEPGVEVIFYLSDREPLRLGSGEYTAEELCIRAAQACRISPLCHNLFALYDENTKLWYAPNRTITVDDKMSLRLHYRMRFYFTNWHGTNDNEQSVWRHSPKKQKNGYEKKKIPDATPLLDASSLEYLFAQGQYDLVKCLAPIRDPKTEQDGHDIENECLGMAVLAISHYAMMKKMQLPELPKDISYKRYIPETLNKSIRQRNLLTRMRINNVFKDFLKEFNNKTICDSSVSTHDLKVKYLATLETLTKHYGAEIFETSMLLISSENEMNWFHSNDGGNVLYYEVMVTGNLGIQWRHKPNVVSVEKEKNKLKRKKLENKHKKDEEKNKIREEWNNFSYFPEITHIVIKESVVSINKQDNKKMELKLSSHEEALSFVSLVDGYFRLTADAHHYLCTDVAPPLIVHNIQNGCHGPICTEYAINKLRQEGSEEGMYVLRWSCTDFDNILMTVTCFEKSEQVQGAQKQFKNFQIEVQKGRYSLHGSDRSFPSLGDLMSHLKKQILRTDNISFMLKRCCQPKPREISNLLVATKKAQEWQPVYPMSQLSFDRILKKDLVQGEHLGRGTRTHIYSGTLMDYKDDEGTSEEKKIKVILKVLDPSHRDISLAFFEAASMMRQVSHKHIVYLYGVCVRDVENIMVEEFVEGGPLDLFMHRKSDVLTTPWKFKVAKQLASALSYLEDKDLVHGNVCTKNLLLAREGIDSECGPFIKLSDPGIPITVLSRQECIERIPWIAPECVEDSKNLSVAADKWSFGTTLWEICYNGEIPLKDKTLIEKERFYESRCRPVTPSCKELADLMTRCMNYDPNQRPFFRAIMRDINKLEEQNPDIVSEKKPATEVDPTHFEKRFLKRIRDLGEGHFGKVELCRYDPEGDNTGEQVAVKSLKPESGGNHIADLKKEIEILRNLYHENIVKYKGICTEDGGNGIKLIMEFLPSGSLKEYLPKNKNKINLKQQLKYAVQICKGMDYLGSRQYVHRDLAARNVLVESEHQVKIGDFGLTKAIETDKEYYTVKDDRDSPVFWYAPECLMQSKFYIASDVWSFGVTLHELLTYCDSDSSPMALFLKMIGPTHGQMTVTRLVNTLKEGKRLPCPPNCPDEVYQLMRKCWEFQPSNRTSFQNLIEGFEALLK
T3 sequence (O60674 whole entry): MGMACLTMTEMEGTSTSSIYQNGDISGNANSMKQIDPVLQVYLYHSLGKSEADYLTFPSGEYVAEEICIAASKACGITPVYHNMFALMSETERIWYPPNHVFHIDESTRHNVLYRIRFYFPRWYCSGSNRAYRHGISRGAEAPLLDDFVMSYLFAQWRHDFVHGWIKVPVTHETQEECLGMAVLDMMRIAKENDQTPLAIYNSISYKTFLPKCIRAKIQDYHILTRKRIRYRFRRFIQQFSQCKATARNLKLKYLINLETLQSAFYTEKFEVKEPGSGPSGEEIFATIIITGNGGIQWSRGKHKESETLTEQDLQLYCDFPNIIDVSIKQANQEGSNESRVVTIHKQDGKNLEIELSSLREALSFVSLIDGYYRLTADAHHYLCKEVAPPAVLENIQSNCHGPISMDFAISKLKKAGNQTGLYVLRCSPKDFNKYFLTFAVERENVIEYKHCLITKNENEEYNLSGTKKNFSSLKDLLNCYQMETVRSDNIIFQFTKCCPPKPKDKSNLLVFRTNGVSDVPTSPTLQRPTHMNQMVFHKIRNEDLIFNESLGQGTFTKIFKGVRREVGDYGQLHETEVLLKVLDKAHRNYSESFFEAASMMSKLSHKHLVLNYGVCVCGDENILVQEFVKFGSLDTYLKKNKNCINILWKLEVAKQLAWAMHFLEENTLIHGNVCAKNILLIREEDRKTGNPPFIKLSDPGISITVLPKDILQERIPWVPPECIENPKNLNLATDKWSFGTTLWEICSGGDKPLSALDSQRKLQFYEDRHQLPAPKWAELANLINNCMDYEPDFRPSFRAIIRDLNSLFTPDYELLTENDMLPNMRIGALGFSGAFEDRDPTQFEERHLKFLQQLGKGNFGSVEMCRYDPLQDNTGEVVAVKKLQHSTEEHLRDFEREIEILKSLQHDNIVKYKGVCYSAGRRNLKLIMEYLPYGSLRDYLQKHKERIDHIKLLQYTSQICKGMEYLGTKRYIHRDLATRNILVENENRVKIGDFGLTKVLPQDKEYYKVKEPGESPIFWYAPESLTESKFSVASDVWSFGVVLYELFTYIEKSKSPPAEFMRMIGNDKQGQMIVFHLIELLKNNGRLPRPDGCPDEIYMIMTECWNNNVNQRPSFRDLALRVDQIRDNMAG

SMILES | JAK1/JAK2 (times) (JAK1) | JAK3/JAK2 (times) (JAK3) | IC50 (JAK2)
N#CCC1(n2cc(-c3nccc4nc(NC(=O)C5CC(O)C5)nn34)cn2)CN(S(=O)(=O)C(F)(F)F)C1 (stereo not drawn) [WX07, N-[5-[1-[3-(cyanomethyl)-1-(trifluoromethylsulfonyl)cyclobutylamine-3-yl]pyrazole-4-yl]-[1,2,4]triazolo[1,5-c]pyrimidin-2-yl]-3-hydroxy-cyclobutane formamide] | F2 (5 < F2 ≤ 10) | F4 (25 < F4 ≤ 100) | 10 to 100 nM
CS(=O)(=O)N1CC(CC#N)(n2cc(-c3nccc4nc(NC(=O)C5CC5)nn34)cn2)C1 [WX12, N-[5-[1-[3-(cyanomethyl)-1-methanesulfonyl-azetidine-3-]pyrazole-4-]-[1,2,4]triazoloe[1,5-c]pyrimidine2-] cyclopropane carboxamide] | F2 (5 < F2 ≤ 10) | F3 (10 < F3 ≤ 25) | 10 to 100 nM
N#CCC1(n2cc(-c3cccc4ncnn34)cn2)CN(S(=O)(=O)C(F)(F)F)C1 [WX17, 2-[3-[4-([1,2,4]triazolo[1,5-a]pyridin-5-)pyrazole-1-]-1-(trifluoromethylsulfonyl)azetidine-3-]acetonitrile] | F1 (1 ≤ F1 ≤ 5) | F3 (10 < F3 ≤ 25) | 10 to 100 nM
N#CCC1(n2cc(-c3nccc4nc(NC(=O)C5CC5)nn34)cn2)CN(C(=O)C2CC2)C1 [WX11, N-[5-[1-[3-(cyanomethyl)-1-(cyclopropylcarbonyl)azetidine-3-]pyrazole-4-]-[1,2,4]triazoloe[1,5-c]pyrimidine2-] cyclopropane carboxamide] | F2 (5 < F2 ≤ 10) | F3 (10 < F3 ≤ 25) | 100 to 1000 nM
CCS(=O)(=O)N1CC(CC#N)(n2cc(-c3nccc4nc(NC(=O)C5CC5)nn34)cn2)C1 [WX01, N-[5-[1-[3-(cyanomethyl)-1-ethylsulfonylazetidine-3-yl]pyrazole-4-yl]-[1,2,4]triazolo[1,5-c]pyrimidin-2-yl]cyclopropanecarboxamide] | F2 (5 < F2 ≤ 10) | F3 (10 < F3 ≤ 25) | 10 to 100 nM
N#CCC1(n2cc(-c3cccc4nc(NC(=O)C5CC5)nn34)cn2)CN(S(=O)(=O)C2CC2)C1 [WX08, N-(5-(1-(3-(cyanomethyl)-1-(cyclopropylsulfonyl)azetidine-3-yl)-1H-pyrazole-4-yl)-[1,2,4]triazolo[1,5-a]pyridin-2-yl)cyclopropane formamide] | F1 (1 ≤ F1 ≤ 5) | F4 (25 < F4 ≤ 100) | < 10 nM
N#CCC1(n2cc(-c3nccc4nc(NC(=O)C5CC5)nn34)cn2)CN(S(=O)(=O)C(F)(F)F)C1 [WX02, N-[5-[1-[3-(cyanomethyl)-1-(trifluoromethylsulfonyl)azetidine-3-yl]pyrazole-4-yl]-[1,2,4]triazolo[1,5-c]pyrimidin-2-yl]cyclopropanecarboxamide] | F1 (1 ≤ F1 ≤ 5) | F3 (10 < F3 ≤ 25) | < 10 nM
N#CCC1(n2cc(-c3nccc4nc(NC(=O)C5CNC5)nn34)cn2)CN(S(=O)(=O)C(F)(F)F)C1 [WX06, N-[5-[1-[3-(cyanomethyl)-1-(trifluoromethylsulfonyl)cyclobutylamine-3-yl]pyrazole-4-yl]-[1,2,4]triazolo[1,5-c]pyrimidin-2-yl]cyclobutylamine-3-formamide] | F1 (1 ≤ F1 ≤ 5) | F3 (10 < F3 ≤ 25) | 10 to 100 nM

Second part, the compound after the results:

JAK1/JAK2 (times) (JAK1) | JAK3/JAK2 (times) (JAK3) | IC50 (JAK2) | SMILES
F3 (10 < F3 ≤ 25) | F4 (25 < F4 ≤ 100) | < 10 nM | CS(=O)(=O)N1CC(CC#N)(n2cc(-c3cccc4nc(NC(=O)C5CC5)sc34)cn2)C1 [WX28, N-(7-(1-(3-(cyanomethyl)-1-(methylsulfonyl)azetidin-3-yl)-1H-pyrazole-4-yl)benzo[d]thiazole-2-yl) cyclopropanecarboxamide]
F3 (10 < F3 ≤ 25) | F4 (25 < F4 ≤ 100) | < 10 nM | CS(=O)(=O)N1CC(CC#N)(n2cc(-c3cccc4nc(N)oc34)cn2)C1 [WX29, 2-(3-(4-(2-aminobenzo[d]oxazole-7-yl)-1H-pyrazole-1-yl)-1-(methylsulfonyl)azetidin-3-yl)acetonitrile]
F1 (1 ≤ F1 ≤ 5) | F3 (10 < F3 ≤ 25) | 100 to 1000 nM | CCS(=O)(=O)N1CC(CC#N)(n2cc(-c3cccn4nc(NC(=O)C(F)(F)F)nc34)cn2)C1 [WX22, N-(8-(1-(3-(cyanomethyl)-1-(ethylsulfonyl)azetidine-3-yl)-1H-pyrazole-4-yl)-[1,2,4]triazolo[1,5-a]pyridin-2-yl)-2,2,2-trifluoroacetamide]
F3 (10 < F3 ≤ 25) | F4 (25 < F4 ≤ 100) | < 10 nM | N#CCC1(n2cc(-c3nccc4nc(NC(=O)C5CC5)nn34)cn2)CN(S(=O)(=O)C(F)F)C1 [WX13, N-[5-[1-[3-(cyanomethyl)-1-(difluoromethylsulfonyl)-azetidine-3-]pyrazole-4-]-[1,2,4]triazoloe[1,5-c]pyrimidine2-]cyclopropane carboxamide]
F1 (1 ≤ F1 ≤ 5) | F3 (10 < F3 ≤ 25) | 10 to 100 nM | CN(C)Cc1cc(C(=O)N2CCC(N3CC(CC#N)(n4cc(-c5cccc6nc(NC(=O)C7CC7)nn56)cn4)C3)CC2)nc(C(F)(F)F)n1 [WX33]
